In publication PMC3734253, “A Novel Color Change Mechanism for Breast Cancer Biomarker Detection: Naphthoquinones as Specific Ligands of Human Arylamine N-Acetyltransferase 1” (PLoS ONE, 2013):

What was measured:
hNAT2 [1] = biological target: T1, hNAT2 (Homo sapiens, UniProt P11245); assay: Visible spectrum of compound in presence of hNAT2; type: binding; details: with hNAT2
T1 sequence (P11245 1-290): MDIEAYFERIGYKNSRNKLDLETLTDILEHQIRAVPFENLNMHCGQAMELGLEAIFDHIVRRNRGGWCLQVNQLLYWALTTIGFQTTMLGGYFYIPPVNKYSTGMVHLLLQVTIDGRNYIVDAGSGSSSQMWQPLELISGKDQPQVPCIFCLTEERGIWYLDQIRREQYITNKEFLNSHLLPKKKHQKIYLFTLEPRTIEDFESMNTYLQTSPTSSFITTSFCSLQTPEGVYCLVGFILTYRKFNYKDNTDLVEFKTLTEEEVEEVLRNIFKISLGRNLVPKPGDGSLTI
Method: (§1) Visible spectra of each compound were recorded with a U-2001 spectrophotometer (Hitachi) using 1 mL plastic cells of 1 cm path-length (FisherBrand) or 50 μL UVettes® (Eppendorf). Concentrations of inhibitors and protein used are given in the appropriate figure legends. All spectra were blank-corrected.

mNat1 [2] = biological target: T2, mNat1 (Mus musculus, UniProt P50294); assay: AcCoA hydrolysis assay, inhibition of mNat1; type: biochemical; details: enzyme mNat1, read-out: % Inhibition at 30 μM of 1
T2 construct: hexa-histidine tag (cleaved yes); made in house; host or cells: E. coli Rosetta(DE3)pLysS
T2 sequence (P50294 1-290): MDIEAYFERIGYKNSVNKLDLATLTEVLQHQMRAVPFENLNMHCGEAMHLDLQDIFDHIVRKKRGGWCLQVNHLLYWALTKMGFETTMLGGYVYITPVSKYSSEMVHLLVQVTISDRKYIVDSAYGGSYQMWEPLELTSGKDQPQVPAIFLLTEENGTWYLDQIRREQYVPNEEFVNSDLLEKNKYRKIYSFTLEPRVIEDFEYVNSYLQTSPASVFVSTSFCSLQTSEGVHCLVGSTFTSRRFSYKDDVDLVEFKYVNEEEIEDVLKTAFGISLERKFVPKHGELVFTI
Method: (§2) NAT activity was determined as previously described,[23]; a full procedure is outlined in the (File S1).
(§3) NAT activity was determined by AcCoA hydrolysis assays. The NAT isoform (100 ng) was pre-incubated with para-amino benzoic acid (500 μM) in the assay buffer (5% DMSO/95% 20mM aq Tris.HCl, pH 8.0) for 5 min. at 37 °C in a 96-well plate (Corning). Pre-warmed AcCoA (400 μM, 37 °C) in assay buffer was added to start the reaction (final volume of 100 μL), which was allowed to proceed at 37 °C. Simultaneous quenching and color development was achieved by addition of 25 μL DTNB solution (5 mM DTNB in 100 mM aq Tris.HCl, 6.4 M guanidine.HCl, pH 7.5). The absorbance was immediately read at 405 nm using a plate reader (Tecan Sunrise). The rate of reaction was determined by reference to a standard curve and controls with buffer alone were carried out. For detection of inhibition, the inhibitors tested were dissolved in DMSO and the final percentage of DMSO in the assay was 5% (v/v). […] A dose-response function was used as a model of regression for the data and the curves were estimated by the method of the least squares analysis.

[3] = biological target: T3, hNAT1 (human arylamine N-acetyltransferase 1) (Homo sapiens, UniProt P18440); assay: AcCoA hydrolysis assay, inhibition of hNAT1; type: biochemical; details: for IC50: pABA 500 μM, AcCoA 400 μM, pH 8.0, 5% DMSO
T3 construct: made in house
T3 sequence (P18440 1-290): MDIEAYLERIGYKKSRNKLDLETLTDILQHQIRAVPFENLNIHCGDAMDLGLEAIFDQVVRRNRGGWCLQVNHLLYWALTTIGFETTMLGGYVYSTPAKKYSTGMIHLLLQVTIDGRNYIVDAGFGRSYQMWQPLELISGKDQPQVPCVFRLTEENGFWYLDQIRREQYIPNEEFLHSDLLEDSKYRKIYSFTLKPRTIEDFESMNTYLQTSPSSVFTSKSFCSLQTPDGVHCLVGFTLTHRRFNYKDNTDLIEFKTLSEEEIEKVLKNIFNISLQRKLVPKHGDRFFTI
Method: as §2, §3

[4] = Acid-base (pH) titration by visible spectra; type: physicochemical; details: panel of buffered solutions at diverse pHs with 5% DMSO; 5% DMSO/95% H2O
Method: 5 μL of 1 in DMSO (final concentration 0.1 mM) was added to 95 μL of a panel of solutions buffered at diverse pHs in a flat-bottomed 96-well plate (Corning). Visible spectra of the samples were recorded from 800 to 350 nm on the FLUOstar Omega plate reader (BMG Labtech), then the λmax were determined for all spectra and plotted against pH. A sigmoidal titration curve was fitted using GraphPad®.

mNat2 [5] = biological target: T4, mNat2 (Mus musculus, UniProt P50295); assay: AcCoA hydrolysis assay, inhibition of mNat2 (wild type); type: biochemical; details: for IC50: mNat2_WT, pABA 500 μM, AcCoA 400 μM, pH 8.0, 5% DMSO
T4 construct: hexa-histidine tag (cleaved yes); made in house; host or cells: E. coli Rosetta(DE3)pLysS
T4 sequence (P50295 1-290): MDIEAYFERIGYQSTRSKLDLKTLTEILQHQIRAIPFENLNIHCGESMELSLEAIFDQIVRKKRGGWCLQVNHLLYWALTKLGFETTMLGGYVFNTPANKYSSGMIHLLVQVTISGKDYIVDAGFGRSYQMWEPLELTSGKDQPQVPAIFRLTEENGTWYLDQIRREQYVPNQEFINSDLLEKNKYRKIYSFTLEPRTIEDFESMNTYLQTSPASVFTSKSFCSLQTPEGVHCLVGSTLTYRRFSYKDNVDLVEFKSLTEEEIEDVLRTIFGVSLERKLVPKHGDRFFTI

hNAT1 = biological target: T5, hNAT1 (Homo sapiens, UniProt P18440); assay: Visible spectrum of compound in presence of hNAT1; type: binding; details: with hNAT1, 20 mM Tris.HCl pH 8
T5 construct: made in house
T5 sequence (P18440 1-290): T3 sequence (P18440 1-290)
Method: as §1
(§4) 15 μM compound 4 was prepared using different conditions: 20 mM aq Tris.HCl, pH 8, 5% DMSO (v/v); 80 mM aq NaOH, pH 13.75, 5% DMSO (v/v); with hNAT1 (30 μM) in 20 mM aq Tris.HCl, pH 8, 5% DMSO (v/v); with mNat2 (30 μM) 20 mM aq Tris.HCl, pH 8, 5% DMSO (v/v). Wavelength scans from 800 to 350 nm were recorded against the respective blanks containing no compound 4.
as §4, with “5” for “4”, “5.” for “4.”

mNat1 [6] = biological target: T2, mNat1; assay: Visible spectrum of compound in presence of mNat1; type: binding; details: with mNat1
Method: as §1

mNat2 [7] = biological target: T4, mNat2; assay: Visible spectrum of compound in presence of mNat2; type: binding; details: with mNat2, 20 mM Tris.HCl pH 8
Method: as §1, §4
as §4, with “5” for “4”, “5.” for “4.”

hNAT2 [8] = biological target: T1, hNAT2; assay: AcCoA hydrolysis assay, inhibition of hNAT2; type: biochemical; details: for enzyme activity retained: hNAT2, inhibitor concentration 30 µM
Method: as §2, §3

[9] = Solubility under NMR conditions for active protein; type: physicochemical; details: 5% DMSO-d6/95% D2O, for 15N-NMR

| Compound | IC50 [3] [µM] | IC50 (mNat2 [5]) [µM] | λmax in presence of hNAT1 (hNAT1) [nm] | λmax in presence of mNat2 (mNat2 [7]) [nm] | enzyme activity retained (hNAT2 [8]) | also measured |
| --- | --- | --- | --- | --- | --- | --- |
| Cc1cc(C)cc(NC2=C(NS(=O)(=O)c3ccccc3)C(=O)c3ccccc3C2=O)c1 [compound 1, N-(3-(3’’,5’’-Dimethylphenylamino)-1,4-dioxo-1,4-dihydronaphthalen-2-yl)benzenesulfonamide] | 5.3 | 1.9 | 585 | 625 | – | λmax in presence of hNAT2 (hNAT2 [1]): 498 nm; inhibition at 30 µM (mNat1 [2]): 37.6 ± 1.6%; inhibition at 30 µM ([3]; 30 μM, enzyme hNAT1): 93.3 ± 0.9%; pKa [4]: ~9.2; inhibition at 30 µM (mNat2 [5]; 30 μM, enzyme mNat2, read-out: % Inhibition at 30 μM of 1): 92.4 ± 4.4%; Ki (mNat2 [5]; competitive towards pABA (25-250 µM), AcCoA 400 µM, 9 ng pure recombinant mNat2, Dixon plot, read-out: Ki (app.)): 0.42 µM; λmax in presence of mNat1 (mNat1 [6]): 498 nm; inhibition at 30 µM (hNAT2 [8]; 30 μM, enzyme hNAT2, read-out: % Inhibition at 30 μM of 1): 10.6 ± 2% |
| Cc1cc(C)cc(NC2=C([15NH]S(=O)(=O)c3ccccc3)C(=O)c3ccccc3C2=O)c1 [compound 2, N-(3-(3’’,5’’-Dimethylphenylamino)-1,4-dioxo-1,4-dihydronaphthalen-2-yl)^15N-benzenesulfonamide] | – | – | – | – | – | solubility [9]: insufficiently soluble |

Second part, led by results:

| IC50 [3] [µM] | IC50 (mNat2 [5]) [µM] | λmax in presence of hNAT1 (hNAT1) [nm] | λmax in presence of mNat2 (mNat2 [7]) [nm] | enzyme activity retained (hNAT2 [8]) | Compound | also measured |
| --- | --- | --- | --- | --- | --- | --- |
| – | – | 476 | 490 | more than 90% | Cc1cc(C)cc(NC2=C(N(C)S(=O)(=O)c3ccccc3)C(=O)c3ccccc3C2=O)c1 [compound 3, N-(3-(3’’,5’’-Dimethylphenylamino)-1,4-dioxo-1,4-dihydronaphthalen-2-yl)-N-methylbenzenesulfonamide] | – |
| 3.6 | 14.6 | – | 548 | more than 90% | COS(=O)(=NC1=C(Nc2cc(C)cc(C)c2)C(=O)c2ccccc2C1=O)c1ccccc1 (stereo not shown) [compound 4, Methyl-N-3-(3’’,5’’-dimethylphenylamino)-1,4-dioxo-1,4-dihydronaphthalen-2-ylbenzenesulfonimidate] | melting point: 71 to 74 °C |
| 93 | > 150 | 492 | 492 | – | Cc1cc(C)cc(NC2=C(OS(=O)(=O)c3ccccc3)C(=O)c3ccccc3C2=O)c1 [compound 5, 3-((3’’,5’’-Dimethylphenyl)amino)-1,4-dioxo-1,4-dihydronaphthalen-2-ylbenzenesulfonate] | – |
